Measured values as given in patent EP4603105A1, “PHARMACEUTICAL COMPOSITION CONTAINING CYCLIC COMPOUND HAVING SELECTIVE KRAS INHIBITORY EFFECT AGAINST HRAS AND NRAS” (CHUGAI SEIYAKU KABUSHIKI KAISHA, priority 2022, dated 2024).
Where a SMILES comes first, the peptide text is derived from it. Bridges are numbered along the chain shown (N, C = ends). [ ]: non-standard residue; d: D form. The star is where a group is joined. hPhe(3-Cl-4-CF3) = N[C@@H](CCc1ccc(C(F)(F)F)c(Cl)c1)C(=O)O; NPrPhe(4-CF3) = CCCN[C@@H](Cc1ccc(C(F)(F)F)cc1)C(=O)O; Pro(4-spirocPr) = O=C(O)[C@@H]1CC2(CC2)CN1; NMeGly(cPent) = CN[C@H](C(=O)O)C1CCCC1; Pro(4,4-F2) = O=C(O)[C@@H]1CC(F)(F)CN1; NMeD = CN[C@@H](CC(=O)O)C(=O)O; NMeL = CN[C@@H](CC(C)C)C(=O)O; Morpholide = C1CN(*)CCO1; NMeA = CN[C@@H](C)C(=O)O; Ac5c = NC1(C(=O)O)CCCC1; Aze = O=C(O)[C@@H]1CCN1; Ac4c = NC1(C(=O)O)CCC1; Sar = CNCC(=O)O

Tests used:
[1] = molecular target: GDP-bound NRAS wild-type protein (Homo sapiens, UniProt P01111); assay: Binding to NRAS by surface plasmon resonance (SPR), KD and KD ratio to KRAS
Procedure: Surface plasmon resonance was used to analyze the binding affinity of compounds for KRAS, NRAS, and HRAS. The apparatus used was Biacore 8K, 8K+, or T200 (GE Healthcare), and the running buffer used was HBS (10 mM HEPES-NaOH, 150 mM NaCl, pH 7.4) containing 1 mM DTT, 10 mM MgCl2, 0.01% Tween 20, 10 µM GDP, and 4% DMSO.
Biotinylated Avi-tag fusion KRAS, NRAS, and HRAS proteins were expressed in E. coli BL21 (DE3) strains, and after cells were homogenized, they were purified using Streptavidin Mutein Matrix and Superdex 75. After purification, GDP-loaded KRAS, NRAS, and HRAS proteins were immobilized on the surface of Sensor Chip CAP (Cytiva) coated with Biotin CAPture Reagent in an immobilization amount of about 100 to 300 RU. Binding of each compound was evaluated by the Single Cycle Kinetics method, and a running buffer or a compound solution was added to the RAS protein non-immobilized surface and the immobilized surface to obtain a binding response. The flow rate was set to 100 µL/min, and in the compound-adding cycle, compound solutions having different concentrations were intermittently added for 75 seconds each, starting from a low concentration. […] In the blank cycle, a running buffer was intermittently added and not the compound solution. The Biotin CAPture Reagent and RAS proteins were immobilized for each cycle, and at the end of each cycle, the sensor chip was regenerated by the regeneration solution appended to the Biotin CAPture Kit (Cytiva). Measurement was carried out at 30°C.
The resulting sensorgram was subjected to curve fitting based on a 1:1 binding model on Biacore Insight Evaluation Software or T200 Evaluation Software, and thereby the dissociation constant KD of each compound with respect to KRAS, NRAS, and HRAS was determined. […] Blank indicates a compound from which the KD value with respect to NRAS or HRAS was not obtained.

[2] = molecular target: HRAS wild-type protein (Homo sapiens, UniProt P01112); assay: Binding to HRAS by surface plasmon resonance (SPR), KD and KD ratio to KRAS
In short: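 GDP-loaded biotinylated Avi-tag RAS proteins (E. coli-expressed) captured on a Biotin CAPture chip at ~100–300 RU; single-cycle kinetics at 30°C, 100 µL/min, 75 s injections of rising compound concentrations. HBS pH 7.4 running buffer with 1 mM DTT, 10 mM MgCl2, 10 µM GDP, 4% DMSO. KD from 1:1 binding fit.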

[3] = tested on: human lung cancer strain NCI-H441; type: cell-based
In short: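 Readout: […] after the ATP-based reagent. Compound: serial dilutions in dimethyl sulfoxide.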

[4] = ratio of KD for GDP-bound NRAS wild-type protein to KD for KRAS
[5] = ratio of KD for HRAS wild-type protein to KD for KRAS
[6] = ratio of the KD value with respect to GDP-bound NRAS wild-type protein to the KD value with respect to KRAS
[7] = ratio of the KD value with respect to HRAS wild-type protein to the KD value with respect to KRAS

Sequence of GDP-bound NRAS wild-type protein (P01111 whole entry): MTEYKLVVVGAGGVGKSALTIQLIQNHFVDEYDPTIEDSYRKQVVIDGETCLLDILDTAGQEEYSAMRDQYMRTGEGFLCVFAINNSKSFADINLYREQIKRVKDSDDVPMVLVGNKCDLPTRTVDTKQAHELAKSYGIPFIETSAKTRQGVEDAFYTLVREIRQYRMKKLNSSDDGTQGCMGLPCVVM
Sequence of HRAS wild-type protein (P01112 whole entry): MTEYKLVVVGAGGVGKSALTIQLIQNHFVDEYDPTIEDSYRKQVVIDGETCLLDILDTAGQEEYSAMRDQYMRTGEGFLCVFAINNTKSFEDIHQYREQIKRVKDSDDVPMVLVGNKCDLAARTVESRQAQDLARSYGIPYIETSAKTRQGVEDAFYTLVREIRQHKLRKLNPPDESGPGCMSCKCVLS

SMILES | NRAS /KRAS [1, 4] | HRAS /KRAS [2, 5] | IC50 [3] [nM] | NRAS /KRAS [1, 6] | HRAS /KRAS [2, 7]
CCO[C@@H]1C[C@H]2C(=O)NC3(CCCC3)C(=O)N(C)[C@@H](C3CCCC3)C(=O)N(C)[C@H](C(=O)N(C)C)CC(=O)N(C)[C@@H](CC(C)C)C(=O)N[C@@H]([C@@H](C)CC)C(=O)N(C)CC(=O)N(C)[C@H]3CC(C)=C(C)CN(C3=O)[C@@H](Cc3ccc(C(F)(F)F)cc3)C(=O)N(C)CC(=O)N[C@@H](CCc3cc(F)c(C(F)(F)F)c(F)c3)C(=O)N2C1 [PP1045] | C (A compound having a KD ratio of 0.1 or more and less than 3 is denoted as C) | C (A compound having a KD ratio of 0.1 or more and less than 3 is denoted as C) | 207 | – | –
CCO[C@@H]1C[C@H]2C(=O)NC3(CCC3)C(=O)N(C)[C@@H](C3CCCC3)C(=O)N(C)[C@H](C(=O)N3CCOCC3)CC(=O)N(C)[C@@H](COC)C(=O)N[C@@H]([C@@H](C)CC)C(=O)N3CC[C@H]3C(=O)N(C)[C@H]3CCCCCN(C3=O)[C@@H](Cc3ccc(C(F)(F)F)cc3)C(=O)N(C)CC(=O)N[C@@H](CCc3cc(F)c(C(F)(F)F)c(F)c3)C(=O)N2C1 [PP0863] | B (a compound having 3 or more and less than 10 is denoted as B) | B (a compound having 3 or more and less than 10 is denoted as B) | 228 | – | –
CCO[C@@H]1C[C@H]2C(=O)NC3(CCC3)C(=O)N(C)[C@@H](C3CCCC3)C(=O)N(C)[C@H](C(=O)N(C)C)CC(=O)N(C)[C@@H](CC)C(=O)N[C@@H]([C@@H](C)CC)C(=O)N(C)CC(=O)N(C)[C@H]3CCCCN(C3=O)[C@@H](Cc3ccc(C(F)(F)F)cc3)C(=O)N(C)CC(=O)N[C@@H](CCc3cc(Cl)c(Cl)c(Cl)c3)C(=O)N2C1 [PP0988] | C (A compound having a KD ratio of 0.1 or more and less than 3 is denoted as C) | B (a compound having 3 or more and less than 10 is denoted as B) | 10.3 | – | –
CCO[C@@H]1C[C@H]2C(=O)NC3(CCC3)C(=O)N(C)[C@@H](C3CCCC3)C(=O)N(CC)[C@H](C(=O)N3CCOCC3)CC(=O)N(C)[C@@H](CC(C)C)C(=O)N[C@@H]([C@@H](C)CC)C(=O)N(C)CC(=O)N(C)[C@H]3CCCCN(C3=O)[C@@H](Cc3ccc(C(F)(F)F)cc3)C(=O)N(C)CC(=O)N[C@@H](CCc3cc(F)c(C(F)(F)F)c(F)c3)C(=O)N2C1 [PP0648] | – | – | 20.8 | B (a compound having 3 or more and less than 10 is denoted as B) | B (a compound having 3 or more and less than 10 is denoted as B)
CCCN1C(=O)CN(C)C(=O)CN(C)C(=O)[C@H]([C@@H](C)CC)NC(=O)[C@H](CC(C)C)N(C)C(=O)C[C@@H](C(=O)N(C)C)N(C)C(=O)[C@H](C2CCCC2)N(C)C(=O)C2(CCC2)NC(=O)[C@@H]2CC(F)(F)CN2C(=O)[C@H](CCc2ccc(C(F)(F)F)c(Cl)c2)NC(=O)CN(C)C(=O)[C@@H]1Cc1ccc(C(F)(F)F)cc1 [PP0414] ([NMeL]I[Sar][Sar][NPrPhe(4-CF3)][Sar][hPhe(3-Cl-4-CF3)][Pro(4,4-F2)][Ac4c][NMeGly(cPent)][NMeD]-NMe2; lactam N-11) | – | – | 1.9 | B (a compound having 3 or more and less than 10 is denoted as B) | C (A compound having a KD ratio of 0.1 or more and less than 3 is denoted as C)
CCO[C@@H]1C[C@H]2C(=O)NC3(CCC3)C(=O)N(C)[C@@H](C3CCCC3)C(=O)N(C)[C@H](C(=O)N(C)C)CC(=O)N(C)[C@@H](CC)C(=O)N[C@@H]([C@@H](C)CC)C(=O)N(C)CC(=O)N(C)[C@H]3CCCCCN(C3=O)[C@@H](Cc3ccc(C(F)(F)F)cc3)C(=O)N(C)CC(=O)N[C@@H](CCc3cc(Cl)c(C(F)(F)F)c(Cl)c3)C(=O)N2C1 [PP0989] | B (a compound having 3 or more and less than 10 is denoted as B) | B (a compound having 3 or more and less than 10 is denoted as B) | 135 | – | –
CCCN1C(=O)[C@@H]2CCN2C(=O)[C@H](C)N(C)C(=O)[C@H]([C@@H](C)CC)NC(=O)[C@H](CC(C)C)N(C)C(=O)C[C@@H](C(=O)N2CCOCC2)N(C)C(=O)[C@H](C2CCCC2)N(C)C(=O)C2(CCCC2)NC(=O)[C@@H]2CC3(CC3)CN2C(=O)[C@H](CCc2ccc(C(F)(F)F)c(Cl)c2)NC(=O)CN(C)C(=O)[C@@H]1Cc1ccc(C(F)(F)F)cc1 [PP0282] ([NMeL]I[NMeA][Aze][NPrPhe(4-CF3)][Sar][hPhe(3-Cl-4-CF3)][Pro(4-spirocPr)][Ac5c][NMeGly(cPent)][NMeD]-Morpholide; lactam N-11) | C (A compound having a KD ratio of 0.1 or more and less than 3 is denoted as C) | C (A compound having a KD ratio of 0.1 or more and less than 3 is denoted as C) | 3.9 | – | –
CCO[C@@H]1C[C@H]2C(=O)NC3(CC(C)(C)C3)C(=O)N(C)[C@@H](C(CC)CC)C(=O)N(C)[C@H](C(=O)N3CCCC3)CC(=O)N(C)[C@@H](C)C(=O)N[C@@H]([C@@H](C)CC)C(=O)N(C)CC(=O)N(C)[C@H]3C/C=C\CCN(C3=O)[C@@H](Cc3ccc(C)cc3)C(=O)N(C)CC(=O)N[C@@H](CCc3cc(F)c(C(F)(F)F)c(F)c3)C(=O)N2C1 [PP2145] | – | – | 17.2 | A (a compound having 10 or more and less than 20 is denoted as A) | A (a compound having 10 or more and less than 20 is denoted as A)
CCO[C@@H]1C[C@H]2C(=O)NC3(CCC3)C(=O)N(C)[C@@H](C3CCCC3)C(=O)N(C)[C@H](C(=O)N3CCOCC3)CC(=O)N(C)[C@@H](Cc3ccc(C)cc3)C(=O)N[C@@H]([C@@H](C)CC)C(=O)N(C)CC(=O)N(C)[C@H]3CCCCCN(C3=O)[C@@H](Cc3ccc(C(F)(F)F)cc3)C(=O)N(C)CC(=O)N[C@@H](CCc3cc(F)c(C(F)(F)F)c(F)c3)C(=O)N2C1 [PP0933] | A (a compound having 10 or more and less than 20 is denoted as A) | B (a compound having 3 or more and less than 10 is denoted as B) | 150 | – | –
CCO[C@@H]1C[C@H]2C(=O)NC3(CC(C)(C)C3)C(=O)N(C)[C@@H](C3CCCC3)C(=O)N(C)[C@H](C(=O)N3CCCCC3)CC(=O)N(C)[C@H]3CCCCCc4ccc(cc4)C[C@@H](C(=O)N(C)CC(=O)N[C@@H](CCc4ccc(C(F)(F)F)c(OC)c4)C(=O)N2C1)N1CC/C=C\C[C@@H](C1=O)N(C)C(=O)CN(C)C(=O)[C@H]([C@@H](C)CC)NC3=O [PP3036] | A (a compound having 10 or more and less than 20 is denoted as A) | B (a compound having 3 or more and less than 10 is denoted as B) | 8 | – | –
CC[C@H](C)[C@@H]1NC(=O)[C@H](CC)N(C)C(=O)C[C@@H](C(=O)N(C)C)N(CC)C(=O)[C@H](C2CCCC2)N(C)C(=O)C2(CCC2)NC(=O)[C@@H]2C[C@@H](N3CCC(F)(F)CC3)CN2C(=O)[C@H](CCc2cc(F)c(C(F)(F)F)c(F)c2)NC(=O)CN(C)C(=O)[C@H](Cc2ccc(C(F)(F)F)cc2)N2CCCC[C@@H](C2=O)N(C)C(=O)CN(C)C1=O [PP0733] | – | – | 220 | B (a compound having 3 or more and less than 10 is denoted as B) | B (a compound having 3 or more and less than 10 is denoted as B)
CCO[C@@H]1C[C@H]2C(=O)NC3(CCC3)C(=O)N(C)[C@@H](C3CCCC3)C(=O)N(C)[C@H](C(=O)N3CCCC3)CC(=O)N(C)[C@@H](CC)C(=O)N[C@@H]([C@@H](C)CC)C(=O)N(C)CC(=O)N(C)[C@H]3C/C=C\CCN(C3=O)[C@@H](Cc3ccc(C(F)(F)F)cc3)C(=O)N(C)CC(=O)N[C@@H](CCc3cc(F)c(C(F)(F)F)c(F)c3)C(=O)N2C1 [PP1090] | AA (a compound having 20 or more is denoted as AA) | A (a compound having 10 or more and less than 20 is denoted as A) | 20.9 | – | –
CC[C@H](C)[C@@H]1NC(=O)[C@H](CC(C)C)N(C)C(=O)C[C@@H](C(=O)N2CCOCC2)N(C)C(=O)[C@H](C2CCCC2)N(C)C(=O)C2(CCCC2)NC(=O)[C@@H]2CCCN2C(=O)[C@H](CCc2ccc(C(F)(F)F)c(Cl)c2)NC(=O)CN(C)C(=O)[C@H](Cc2ccc(OC(F)(F)F)cc2)N2CC=CC[C@@H](C2=O)N(C)C(=O)CN(C)C1=O [PP0537] | – | – | 197 | C (A compound having a KD ratio of 0.1 or more and less than 3 is denoted as C) | C (A compound having a KD ratio of 0.1 or more and less than 3 is denoted as C)
